Data published in patent publication US20250064773A1, “TARGETING ERO1 ALPHA WITH AURONE DERIVATIVES” (West Virginia University Board of Governors on behalf of …, priority 2021, published 2025).

Experiments:
purified human ERO1α = biological target: T1, purified human ERO1α (Homo sapiens, UniProt Q96HE7, C104A/C131A/C166A); assay: Recombinant ERO1α enzyme assay (Amplex Red); assay type: biochemical; settings: for inhibition at 10 µM: average of N = 3 ± S.D., read-out: % inhibition (10 μM) of ERO1α enzyme activity compared to vehicle control
T1 construct: made in house
T1 sequence (Q96HE7 22-468 C104A/C131A/C166A): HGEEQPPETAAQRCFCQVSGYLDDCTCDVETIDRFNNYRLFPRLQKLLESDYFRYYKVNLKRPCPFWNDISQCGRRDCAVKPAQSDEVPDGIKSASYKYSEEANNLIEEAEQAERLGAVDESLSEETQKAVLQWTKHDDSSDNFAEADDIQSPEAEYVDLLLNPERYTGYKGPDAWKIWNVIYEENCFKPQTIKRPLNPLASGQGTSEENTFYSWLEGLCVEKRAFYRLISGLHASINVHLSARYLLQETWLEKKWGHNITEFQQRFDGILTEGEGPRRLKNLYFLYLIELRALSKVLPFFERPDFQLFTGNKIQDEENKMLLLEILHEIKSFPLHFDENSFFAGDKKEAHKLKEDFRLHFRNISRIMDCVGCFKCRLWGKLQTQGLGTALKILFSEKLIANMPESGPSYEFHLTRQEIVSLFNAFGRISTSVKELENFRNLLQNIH
Procedure: Based on previous work which established an aurone chemical class of compounds as FAD containing enzyme inhibitors^37, we evaluated sulfuretin analogs for ERO1α enzyme inhibition.
Quantification of enzymatic activity of ERO1α was performed using the Amplex Red as previously described^6.

PC-9 cells = assay: Soft agar clonogenic assay, PC-9; assay type: cell-based; settings: 14 days, 3.75-15 μM
Procedure: (§1) We utilized an MTT assay to determine the potency of the compounds for inhibiting cell growth. […] We next asked whether T151742 induced inhibition of cell growth was dependent on ERO1α expression. As shown in FIG. 6C two ERO1α deleted clones in the PC-9 cell line were isolated. Using an MTT assay to determine overall cellar viability, a non-targeted control (scramble), and both ERO1α knockout clones was subjected to treatment with T151742 for 72 hours (See FIG. 6D). […] Though only slight differences were observed between T151742 and EN-460 we tested the effects of these compounds in a clonogenic assay which is a better test for inhibition of self-renewal.
FIG. 7A and FIG. 7B show 1000 cells/well were plated in a 12-well plate in triplicate with either 0.5% DMSO, T151742, or EN-460 and allowed to form colonies for 14 days. Colonies were subsequently stained with 0.01% Crystal Violet, imaged, and quantified using ImageJ. […] Colonies were stained with 0.01% Crystal Violet, imaged, and quantified using ImageJ.
Cell Lines: PC-9 cell line used was obtained from Sigma Aldrich and grown in RPMI 1640 medium with 10% fetal bovine serum and 1% penicillin/streptomycin. […] Plate was then read on the BioTek Cytation 5 at 530/590 nm. […] Plate was then read at 570 nm. […] Images were then quantified using ImageJ. […]

LSD-1 = LSD-1 (Homo sapiens, UniProt O60341); settings: cited from earlier work
MAO-A = biological target: T2, MAO-A (Homo sapiens, UniProt P21397); settings: cited from earlier work
T2 sequence (P21397 1-527): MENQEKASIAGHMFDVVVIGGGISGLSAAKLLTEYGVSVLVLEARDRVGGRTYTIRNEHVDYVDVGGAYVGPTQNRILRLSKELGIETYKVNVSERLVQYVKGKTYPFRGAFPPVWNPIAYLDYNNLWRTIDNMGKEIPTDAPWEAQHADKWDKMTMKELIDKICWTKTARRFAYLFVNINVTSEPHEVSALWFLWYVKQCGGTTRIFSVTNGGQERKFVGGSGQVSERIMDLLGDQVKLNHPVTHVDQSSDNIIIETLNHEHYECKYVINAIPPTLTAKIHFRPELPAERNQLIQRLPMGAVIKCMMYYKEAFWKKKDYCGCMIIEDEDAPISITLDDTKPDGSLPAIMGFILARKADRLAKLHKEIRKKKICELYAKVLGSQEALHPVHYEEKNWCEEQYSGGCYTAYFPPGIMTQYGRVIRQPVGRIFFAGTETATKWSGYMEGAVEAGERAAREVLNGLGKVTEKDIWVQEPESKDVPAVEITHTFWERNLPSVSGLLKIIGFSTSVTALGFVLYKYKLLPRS

MAO-B = biological target: T3, MAO-B (Homo sapiens, UniProt P27338); settings: cited from earlier work
T3 sequence (P27338 1-520): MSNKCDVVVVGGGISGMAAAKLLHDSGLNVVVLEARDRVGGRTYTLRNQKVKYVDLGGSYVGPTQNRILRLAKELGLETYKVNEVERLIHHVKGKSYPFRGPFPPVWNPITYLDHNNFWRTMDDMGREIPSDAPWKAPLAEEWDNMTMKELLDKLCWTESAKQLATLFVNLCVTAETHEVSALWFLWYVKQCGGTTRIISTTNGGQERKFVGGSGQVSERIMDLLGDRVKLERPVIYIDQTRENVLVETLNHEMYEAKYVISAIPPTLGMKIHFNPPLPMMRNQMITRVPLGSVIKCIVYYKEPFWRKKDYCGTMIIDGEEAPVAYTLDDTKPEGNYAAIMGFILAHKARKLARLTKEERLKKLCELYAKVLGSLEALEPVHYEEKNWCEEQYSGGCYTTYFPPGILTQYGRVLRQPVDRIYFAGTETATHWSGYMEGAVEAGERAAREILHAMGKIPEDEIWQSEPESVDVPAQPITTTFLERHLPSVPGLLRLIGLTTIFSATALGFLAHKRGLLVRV

[1] = tested on: PC-9 non-small cell lung cancer cell line; assay: MTT viability assay, PC-9; assay type: cell-based; settings: 72 h, read-out: IC50, MTT assay, PC-9
Procedure: as §1
Cell Lines: PC-9 cell line used was obtained from Sigma Aldrich and grown in RPMI 1640 medium with 10% fetal bovine serum and 1% penicillin/streptomycin. HCC4006, U266, MM1.s, and Beas-2B cell lines were obtained from ATCC and cultured in either RPMI 1640 or DMEM with 10% fetal bovine serum and 1% penicillin/streptomycin. All cell lines were also checked for mycoplasma every six months and subjected to short tandem repeat (STR) analysis for cell line validation. CRISPR Cas9: CRISPR Guide RNA 2 targeting ERO1α and CRISPR Guide RNA 4 were purchased from Genscript in the pLentiCRISPR V2 plasmid containing puromycin/ampicillin selection marker. Lentivirus was made from HEK 293T cells by co-transfection with GuideRNA of interest, pVSVG, and pPAX2 plasmids. Lentivirus was collected after 48 hours and concentrated using 40% PEG8000. […] Plate was then read on the BioTek Cytation 5 at 530/590 nm. […] Plate was then read at 570 nm. Treated wells were all compared to DMSO control wells to calculate percent growth inhibition and the IC50 was calculated using GraphPad (log(inhibitor) vs growth inhibition). […] Images were then quantified using ImageJ. […] Cells were aliquoted at 1 million cells per PCR tube in PBS and heated in Bio-Rad T100 thermal cycler at indicated temperatures (RT, 46° C., 48° C., 50° C., 52° C., 54° C., 56°, 58° C., and 60° C.) for 3 minutes and aggregation temperature was determined by western blot analysis. […]

O=C(O)c1cc(N2N=C(C(F)(F)F)/C(=C/c3ccc(-c4ccccc4)o3)C2=O)ccc1Cl [EN-460, reference compound]
IC50 (purified human ERO1α; purified human ERO1α 0.0625 mg/mL, PDI 0.0625 mg/mL, mean ± S.D., N=3): 16.5 ± 3.47 µM | activity in clonogenicity assay (colony number) (PC-9 cells): devoid of activity | inhibition of LSD-1 (LSD-1): inhibits | inhibition of / activity against MAO-A (MAO-A): inhibits | inhibition of / activity against MAO-B (MAO-B): inhibits

O=C1/C(=C/c2c(F)cccc2Cl)Oc2cc(O)ccc21 [SR-F-125]
inhibition at 10 µM (purified human ERO1α): 20.7 ± 4.92%

O=C(O)c1ccc(/C=C2\Oc3cc(O)ccc3C2=O)cc1 [SR-F-114]
IC50 [1]: 32.4 ± 6.01 µM

O=C1/C(=C/c2ccc(-c3ccccc3)cc2)Oc2cc(O)ccc21 [SR-F-126]
inhibition at 10 µM (purified human ERO1α): 38.7 ± 1.56%

N[C@@H]1C[C@H]1c1ccccc1 (racemic) [tranylcypromine, reference compound]
inhibition of ERO1α activity (concentration response, FIG. 8) (purified human ERO1α; covalent modifiers of FAD): did not inhibit
